Where a SMILES comes first, the peptide text is derived from it. [ ]: non-standard residue; d: D form. The star is where a group is joined. Tyr(3-NO2) = N[C@@H](Cc1ccc(O)c([N+](=O)[O-])c1)C(=O)O; Boc = CC(C)(C)OC(=O)*
Columns and labels:
[1] = target: T1, recombinant active human PAI-1 (Homo sapiens (Human), UniProt P05121); assay: Fluorometric IC50 plate assay (PAI-1 inhibition of uPA, Z-Gly-Gly-Arg-AMC); assay type: biochemical; settings: in vitro, PAI-1 1 nM, uPA 2.5 nM, pH 7.8, 10% DMSO; ND = not detected, e.g. no inhibition
PAI-1 [2] = target: T2, PAI-1 (Homo sapiens (Human), UniProt P05121); assay: Surface plasmon resonance, loss of PAI-1 binding to immobilized anhydrotrypsin; settings: PAI-1 2 nM preincubated with compound, SPR; read-out: Apparent KD (nM) ± SEM
Target sequence in this assay (P05121 24-402): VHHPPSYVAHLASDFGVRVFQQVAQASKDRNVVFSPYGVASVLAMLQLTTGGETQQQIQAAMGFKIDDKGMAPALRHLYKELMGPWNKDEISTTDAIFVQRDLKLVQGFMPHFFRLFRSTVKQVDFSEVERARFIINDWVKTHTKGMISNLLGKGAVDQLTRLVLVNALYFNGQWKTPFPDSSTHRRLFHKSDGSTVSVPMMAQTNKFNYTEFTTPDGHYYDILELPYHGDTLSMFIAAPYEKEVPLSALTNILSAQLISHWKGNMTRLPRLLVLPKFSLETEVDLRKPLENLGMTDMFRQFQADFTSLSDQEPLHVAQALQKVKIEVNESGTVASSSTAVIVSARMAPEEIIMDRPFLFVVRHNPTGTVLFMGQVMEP

active mouse PAI-1 = active mouse PAI-1 (Mus musculus (Mouse), UniProt P22777); assay: Ex vivo plasma Luminex assay, mouse plasma spiked with active mouse PAI-1; assay type: biochemical; settings: mouse plasma spiked with active mouse PAI-1 3-4 ng/mL
[3] = target: T1, recombinant active human PAI-1; assay: pH dependence of PAI-1 inhibition, fluorogenic uPA (or tPA) assay; assay type: biochemical; settings: for effect of pH on PAI-1 inhibition (in words): pH 6.5 to 8.5; for PAI-1 inhibitory efficacy (in words): pH 7.5 (FIG. 8), additional experiments
[4] = target: T1, recombinant active human PAI-1; assay: Chromogenic uPA assay of PAI-1 inhibition (pGlu-Gly-Arg pNA); assay type: biochemical
PAI-1 [5] = target: T2, PAI-1; assay: SDS-PAGE analysis of PAI-1:plasminogen activator complex formation; assay type: biochemical; settings: tannic acid 0-100 μM, uPA or tPA
Target sequence in this assay (P05121 24-402): as above

[6] = target: recombinant active human PAI-1 preincubated with vitronectin (Homo sapiens (Human), UniProt P05121); assay: Inhibition of vitronectin-bound PAI-1 by tannic acid, chromogenic uPA assay; assay type: biochemical; settings: 5-fold molar excess of vitronectin
[7] = target: T1, recombinant active human PAI-1; assay: β-trypsin screening assay for PAI-1 inhibitors; assay type: biochemical; settings: 10 μM compound; hit = more than 3 standard deviations above control;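 also: fluorogenic readout with PAI-1 and β-trypsin at 10:1 molar ratio, untreated PAI-1 wells set as 100% PAI-1 activity and β-trypsin alone as 0%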
[8] = target: T1, recombinant active human PAI-1; assay: High throughput uPA chromogenic screen for PAI-1 inactivators; assay type: biochemical; settings: 10 μM compound; hit = more than 3 standard deviations above control
PAI-1 [9] = assay: PAI-1 activity assay in ex vivo plasma with and without vitronectin; assay type: biochemical; settings: plasma of PAI-1 null or PAI-1/vitronectin null mice, 20 nM PAI-1
active murine PAI-1 = active murine PAI-1 (Mus musculus (Mouse), UniProt P22777); assay: In vivo efficacy in transgenic mice that overexpress PAI-1, active PAI-1 in plasma; settings: 3, 10, 30 mg/kg into the IVC, 1 hour
C57BL/6J and 129 mice = assay: Oral PAI-039 in chow for two weeks, plasma PAI-1 activity and lipid profiles; assay type: in vivo, mouse
PAI-1 null mice = assay: Oral PAI-039 in PAI-1 null mice, lipid analysis; assay type: in vivo, mouse; settings: two weeks in chow
PAI-1 [10] = target: T2, PAI-1; settings: cited from earlier work
Target sequence in this assay (P05121 24-402, species assumed): as the sequence (P05121 24-402) above

PAI-1/vitronectin = PAI-1/vitronectin (Homo sapiens (Human), UniProt P05121); assay: Inhibition of PAI-1 in the presence of vitronectin, fluorogenic uPA assay; assay type: biochemical
[11] = target: anti-thrombin III (ATIII) (Homo sapiens (Human), UniProt P01008); assay: Specificity assay on anti-thrombin III (thrombin activity); assay type: biochemical; settings: pH 7.5 or pH 8.5, with heparin
Sequence of anti-thrombin III (ATIII) (P01008 33-464, species assumed): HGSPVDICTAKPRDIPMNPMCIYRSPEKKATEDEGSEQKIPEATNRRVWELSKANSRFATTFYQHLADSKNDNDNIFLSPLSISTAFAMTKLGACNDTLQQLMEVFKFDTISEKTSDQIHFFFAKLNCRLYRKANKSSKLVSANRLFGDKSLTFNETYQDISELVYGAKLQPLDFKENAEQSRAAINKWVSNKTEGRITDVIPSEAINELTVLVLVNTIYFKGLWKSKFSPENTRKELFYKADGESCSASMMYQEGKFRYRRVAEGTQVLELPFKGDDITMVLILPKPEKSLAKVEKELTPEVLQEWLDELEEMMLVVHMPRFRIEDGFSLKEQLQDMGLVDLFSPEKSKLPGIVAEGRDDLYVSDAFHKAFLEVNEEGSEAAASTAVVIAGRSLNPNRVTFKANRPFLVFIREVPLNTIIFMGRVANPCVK

T1 sequence (P05121 24-402): as the sequence (P05121 24-402) above
Sequence of active mouse PAI-1 (P22777 23-402): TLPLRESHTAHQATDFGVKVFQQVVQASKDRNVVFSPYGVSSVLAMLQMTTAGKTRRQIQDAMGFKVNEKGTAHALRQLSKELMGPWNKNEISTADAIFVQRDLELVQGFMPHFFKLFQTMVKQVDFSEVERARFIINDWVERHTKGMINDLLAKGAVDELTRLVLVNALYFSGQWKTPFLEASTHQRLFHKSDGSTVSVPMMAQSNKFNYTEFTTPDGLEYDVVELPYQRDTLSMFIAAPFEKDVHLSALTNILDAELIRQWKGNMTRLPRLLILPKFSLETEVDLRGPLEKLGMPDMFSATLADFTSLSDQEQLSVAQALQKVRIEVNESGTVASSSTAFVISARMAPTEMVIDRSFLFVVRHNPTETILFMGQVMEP
Sequence of PAI-1/vitronectin (P05121 24-402): as the sequence (P05121 24-402) above
Sequence of active murine PAI-1 (P22777 23-402): as the sequence (P22777 23-402) above
Sequence of recombinant active human PAI-1 preincubated with vitronectin (P05121 24-402): as the sequence (P05121 24-402) above
Sequence of recombinant active human PAI-1 preincubated with vitronectin (P04004 20-478 partner): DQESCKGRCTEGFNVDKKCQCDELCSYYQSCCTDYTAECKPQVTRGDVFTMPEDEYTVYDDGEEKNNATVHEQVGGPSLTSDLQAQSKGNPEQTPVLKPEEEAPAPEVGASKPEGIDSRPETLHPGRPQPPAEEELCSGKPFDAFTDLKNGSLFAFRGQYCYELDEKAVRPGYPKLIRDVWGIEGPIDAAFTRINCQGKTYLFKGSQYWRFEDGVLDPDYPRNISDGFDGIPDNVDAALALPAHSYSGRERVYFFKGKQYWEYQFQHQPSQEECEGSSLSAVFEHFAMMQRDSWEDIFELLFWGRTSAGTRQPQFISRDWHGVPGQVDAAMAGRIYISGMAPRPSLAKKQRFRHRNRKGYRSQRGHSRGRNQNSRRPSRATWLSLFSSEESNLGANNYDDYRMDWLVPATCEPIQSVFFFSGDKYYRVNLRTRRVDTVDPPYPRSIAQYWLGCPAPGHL

In the case of O=C(O[C@@H]1CCCC[C@H]1OC(=O)c1cc(O)c(O)c(O)c1)c1cc(O)c(O)c(O)c1 [CDE-034], the IC50 [1] is reported as 1.17 µM and the Kd (PAI-1 [2]) is reported as 67 ± 3 nM.

For O=C(OC[C@H]1O[C@@H](OC(=O)c2cc(O)c(O)c(OC(=O)c3cc(O)c(O)c(O)c3)c2)[C@H](OC(=O)c2cc(O)c(O)c(OC(=O)c3cc(O)c(O)c(O)c3)c2)[C@@H](OC(=O)c2cc(O)c(O)c(OC(=O)c3cc(O)c(O)c(O)c3)c2)[C@@H]1OC(=O)c1cc(O)c(O)c(OC(=O)c2cc(O)c(O)c(O)c2)c1)c1cc(O)c(O)c(OC(=O)c2cc(O)c(O)c(O)c2)c1 [Tannic acid, tannic acid], the IC50 (active mouse PAI-1) was 9.68 µM, the IC50 ([3]; pH 6.5) was 7.36 µM and the “effect of pH on PAI-1 inhibition (in words)” value [3] was “improved by increasing pH”. It also gave an IC50 ([3]; pH 7.5) of 7.15 µM, an IC50 ([3]; pH 8.5) of 0.0091 µM and an IC50 ([4]; some experiments (not shown in FIG. 2)) of 2.5 µM. The “effect on PAI-1:PA complex formation (in words)” value (PAI-1 [5]) was “converts PAI-1 to a substrate for PAs”, the “inhibition of vitronectin-bound PAI-1 (in words)” value [6] was “inhibited PAI-1 activity even when bound to vitronectin” and the “screening hit: restoration of β-trypsin activity” value [7] was “demonstrate PAI-1 inhibitor activity”. For the same molecule, the “screening hit: restoration of uPA activity” value [8] was “positive hits”.

For O=C(O[C@H]1CCCC[C@H]1OC(=O)c1cc(O)c(O)c(O)c1)c1cc(O)c(O)c(O)c1 [CDE-031], the IC50 [1] was 0.28 µM, the Kd (PAI-1 [2]) was 31 ± 2 nM and the “effect of pH on PAI-1 inhibition (in words)” value [3] was “increased with increasing pH”. The “PAI-1 inhibitory efficacy (in words)” value [3] was “effective inhibitors of PAI-1”.

For O=C(OCCOCCOC(=O)c1cc(O)c(O)c(O)c1)c1cc(O)c(O)c(O)c1 [CDE-009], the IC50 [1] was 49.3 µM and the “PAI-1 inhibitory efficacy (in words)” value [3] was “effective PAI-1 inhibitors”.

In the case of O=C(OCCOCCOCCOCCOC(=O)c1cc(O)c(O)c(O)c1)c1cc(O)c(O)c(O)c1 [CDE-011], the IC50 [1] is reported as 338 µM and the “PAI-1 inhibitory efficacy (in words)” value [3] is reported as “effective PAI-1 inhibitors”.

For O=C(OC[C@H]1OC(OC(=O)c2cc(O)c(O)c(O)c2)[C@H](OC(=O)c2cc(O)c(O)c(O)c2)[C@@H](OC(=O)c2cc(O)c(O)c(O)c2)[C@H]1OC(=O)c1cc(O)c(O)c(O)c1)c1cc(O)c(O)c(O)c1 (stereo partly drawn) [CDE-066], the “PAI-1 inhibition in plasma with or without vitronectin (in words)” value (PAI-1 [9]) was “inhibited PAI-1 equally well in plasma with or with out physiologic vitronectin” and the “active PAI-1 in plasma after treatment (in words)” value (active murine PAI-1) was “dose-dependent decrease in active PAI-1”.

With O=C(OCCOCCOCCOC(=O)c1cc(O)c(O)c(O)c1)c1cc(O)c(O)c(O)c1 [CDE-012] the IC50 [1] was 196 µM and the “PAI-1 inhibitory efficacy (in words)” value [3] was “effective PAI-1 inhibitors”.

With O=C(O)C(=O)c1cn(Cc2ccccc2)c2ccc(-c3ccc(OC(F)(F)F)cc3)cc12 [PAI-039, tiplaxtinin] the “PAI-1 inhibition in plasma with or without vitronectin (in words)” value (PAI-1 [9]) was “only inhibitory in plasma that lacks vitronectin”, the HDL cholesterol increase (C57BL/6J and 129 mice; 129) was 45% and the VLDL decrease (C57BL/6J and 129 mice; 129) was 35%. For the same molecule, the HDL cholesterol increase (C57BL/6J and 129 mice; C57BL/6J) was 11%, the VLDL decrease (C57BL/6J and 129 mice; C57BL/6J) was 49% and the “plasma level of active PAI-1” value (C57BL/6J and 129 mice; C57BL/6J mice, 5 mg PAI-039/gram of chow, two weeks) was 0.37 ± 0.08 ng/mL. For the same molecule, the VLDL average decrease (C57BL/6J and 129 mice; average of C57BL/6J and 129) was 42%, the “HDL higher, average increase for C57BL/6J and 129 mice” value (C57BL/6J and 129 mice; average of both strains) was “approximately 28%” and the “effect on metabolism (lipid profile) in PAI-1 null mice (in words)” value (PAI-1 null mice) was “no significant effect”. For the same molecule, the “inhibition of vitronectin bound PAI-1 (in words)” value (PAI-1 [10]) was “does not inhibit vitronectin bound PAI-1”.

In the case of O=S(=O)(NCCNS(=O)(=O)c1ccc(O)c(O)c1)c1ccc(O)c(O)c1 [CDE-021], the IC50 [1] is reported as 450 µM, the “effect of pH on PAI-1 inhibition (in words)” value [3] is reported as “increased with increasing pH” and the “PAI-1 inhibitory efficacy (in words)” value [3] is reported as “effective inhibitors of PAI-1”.

In the case of O=C(OCCCOC(=O)c1cc(O)c(O)c(O)c1)c1cc(O)c(O)c(O)c1 [CDE-013], the IC50 [1] is reported as 7.85 µM and the “PAI-1 inhibitory efficacy (in words)” value [3] is reported as “effective PAI-1 inhibitors”.

For O=C(O)c1cc(O)c(O)c(O)c1 [gallic acid], the “effect of pH on PAI-1 inhibition (in words)” value [3] was “increased with increasing pH to 8.5”, the “fold less active toward PAI-1 than tannic acid” value ([4]; FIG. 2) was “approximately 1000 fold” and the “fold less active toward PAI-1 than tannic acid” value ([4]; other data (not shown)) was “up to 4000 fold”.

O=C(OCC(COC(=O)c1cc(O)c(O)c(O)c1)OC(=O)c1cc(O)c(O)c(O)c1)c1cc(O)c(O)c(O)c1 [CDE-082] showed a Kd (PAI-1 [2]) of 5.3 ± 0.2 nM.

In the case of CCOC(=O)[C@H](Cc1ccc(O)c([N+](=O)[O-])c1)NC(=O)[C@H](Cc1ccc(O)c([N+](=O)[O-])c1)NC(=O)OC(C)(C)C [CDE-033] (Boc-[Tyr(3-NO2)]-[Tyr(3-NO2)]-OEt), the IC50 [1] is reported as 246 µM.

In the case of CC(C)(C)OC(=O)NCC(COC(=O)c1cc(O)c(O)c(O)c1)OC(=O)c1cc(O)c(O)c(O)c1 (stereo not drawn) [CDE-075], the IC50 [1] is reported as 0.07 µM.

In the case of CN(N(C)S(=O)(=O)c1ccc(O)c(O)c1)S(=O)(=O)c1ccc(O)c(O)c1 [CDE-068], the IC50 [1] is reported as 32.7 µM.

In the case of O=C(Oc1cc(O)cc2c1C[C@@H](OC(=O)c1cc(O)c(O)c(O)c1)[C@@H](c1cc(O)c(O)c(O)c1)O2)c1cc(O)c(O)c(O)c1 [epigallocatechin 3,5 digallate], the “screening hit: restoration of uPA activity” value [8] is reported as “positive hits”.

In the case of O=C(NCCNC(=O)c1cc(O)c(O)c(O)c1)c1cc(O)c(O)c(O)c1 [CDE-044], the IC50 [1] is reported as 900 µM.

Work on O=S(=O)(NNS(=O)(=O)c1ccc(O)c(O)c1)c1ccc(O)c(O)c1 [CDE-059] yielded an IC50 [1] of 0.09 µM and an IC50 (active mouse PAI-1) of 973 µM.

For CC(C)(C)OC(=O)N[C@@H](Cc1ccc(O)c([N+](=O)[O-])c1)C(=O)O [CDE-028], the IC50 [1] was 386 µM, the “effect of pH on PAI-1 inhibition (in words)” value [3] was “increased with increasing pH” and the “PAI-1 inhibitory efficacy (in words)” value [3] was “effective inhibitors of PAI-1”.

Work on O=C(O[C@H]1CC[C@H](OC(=O)c2cc(O)c(O)c(O)c2)CC1)c1cc(O)c(O)c(O)c1 [CDE-062] yielded an IC50 [1] of 332 µM.

In the case of CCN(CCN(CC)S(=O)(=O)c1ccc(O)c(O)c1)S(=O)(=O)c1ccc(O)c(O)c1 [CDE-032], the IC50 [1] is reported as 10.2 µM, the “effect of pH on PAI-1 inhibition (in words)” value [3] is reported as “increased with increasing pH” and the “PAI-1 inhibitory efficacy (in words)” value [3] is reported as “effective inhibitors of PAI-1”.

O=C(Oc1ccccc1OC(=O)c1cc(O)c(O)c(O)c1)c1cc(O)c(O)c(O)c1 [CDE-056] showed an IC50 [1] of 2.96 µM and a Kd (PAI-1 [2]) of 51 ± 6 nM.

COc1cc(C(=O)N(C)CCN(C)C(=O)c2cc(OC)c(O)c(OC)c2)cc(OC)c1O [CDE-064] showed an IC50 [1] of 2200 µM.

For O=C(NCCCNC(=O)c1cc(O)c(O)c(O)c1)c1cc(O)c(O)c(O)c1 [CDE-070], the IC50 [1] was 269 µM.

With O=C(c1cc(O)c(O)c(O)c1)N1CCN(C(=O)c2cc(O)c(O)c(O)c2)CC1 [CDE-055] the IC50 [1] was 27.5 µM.

O=C(OCCOC(=O)c1cc(O)c(O)c(O)c1)c1cc(O)c(O)c(O)c1 [CDE-008] gave an IC50 [1] of 0.37 µM, a Kd (PAI-1 [2]) of 23 ± 1 nM and an IC50 ([3]; pH 6.5) of 325 µM. For the same molecule, the “effect of pH on PAI-1 inhibition (in words)” value [3] was “more effective inhibitor at pH 8.5 than at pH 7.5”, the IC50 ([3]; pH 7.5) was 0.288 µM and the IC50 ([3]; pH 8.5) was 0.064 µM. The “inhibition of PAI-1 in the presence of vitronectin (in words)” value (PAI-1/vitronectin; 200 nM vitronectin, pH 7.5 and pH 8.5) was “inhibits PAI-1 in the presence of vitronectin at both pH 7.5 and pH 8.5”, the “change of IC50 in the presence of vitronectin” value (PAI-1/vitronectin; at each pH (7.5 and 8.5)) was 1 log value and the “effect on ATIII activity (in words)” value [11] was “no effect”.

O=C(O[C@@H]1CCC[C@H](OC(=O)c2cc(O)c(O)c(O)c2)C1)c1cc(O)c(O)c(O)c1 [CDE-057] showed an IC50 [1] of 195 µM.

From patent US9120744B2, “Plasminogen activator inhibitor-1 inhibitors and methods of use thereof to modulate lipid metabolism” (THE REGENTS OF THE UNIVERSITY OF MICHIGAN, priority 2007, dated 2015)
